Assay results taken from patent publication US9809843B1, “High throughput measurement of DNA base lesion repair capacity” (THE FLORIDA INTERNATIONAL UNIVERSITY BOARD OF TRUSTEES, priority 2016, dated 2017).

Experiments:
[1] = test system: prostate cancer (LNCaP) cell extracts; assay: BER capacity of prostate cancer cell extracts (fluorescence assay); type: biochemical, human; settings: 25 μg cell extracts, inhibitor 200 μM, 37° C. 30 minutes; FIG. 7
Protocol: Cell pellets were re-suspended in lysis buffer that contained 10 mM Tris-HCl, pH 7.8, 200 mM KCl, 1 mM EDTA, 20% glycerol, 0.1% Nonidet P-40, 1 mM DTT with proteinase inhibitors (Roche Diagnostics Corporation, Indianapolis, Ind.). Cell suspension was subsequently subjected to rotation at 4° C. for 2 hours. After rotation, cell lysates were centrifuged at 14,000 rpm at 4° C. for 30 minutes to remove cell debris. The supernatant was recovered and further dialyzed into BER reaction buffer containing 50 mM Tris-HCl, pH 7.5, 50 mM KCl, 0.1 mM EDTA, 0.1 mg/ml bovine serum albumin, and 0.01% Nonidet P-40. Protein concentration of cell lysates was determined by Bradford assay. Cell lysates were aliquoted and stored at −80° C. for subsequent assay.
Substrates (25 nM) were pre-incubated with 25 nM purified APE1 at 37° C. for 15 minutes, and completely converted into ssDNA break intermediates for subsequent BER reactions. In vitro BER of a THF base lesion was performed by incubating APE1 precut substrate with 25 μg cell extracts in 10 μl-reaction mixtures that contained BER reaction buffer with 5 mM Mg^2+, 50 μM dNTP and 2 mM ATP in the absence or presence of inhibitors. Reaction mixtures were assembled on ice and incubated at 37° C. for 30 minutes.
10 μl-reaction mixtures were then transferred to […] black plates (Thermo Fisher Scientific, Pittsburgh, Pa.) and subjected to fluorescence reading. Each substrates/lysate/inhibitor combination was run in triplicate.
[…] plates were read at an excitation wavelength of 485±20 nm and an emission wavelength of 528±20 nm on a Synergy HTX Plate Reader (Bio-Tek, Winooski, Vt.). Data were exported to Excel for statistical analysis.
The fluorescence reading of each well needs to be abstracted by the reading from the well with 10 μl-BER reaction buffer alone before further data analysis. Normalized fluorescence data were averaged and plotted as “Average±Standard Deviation.” […]

Exo III = Exo III (Escherichia coli, UniProt P09030); settings: 0.5 U EXO III
Chain of Exo III (P09030 whole entry): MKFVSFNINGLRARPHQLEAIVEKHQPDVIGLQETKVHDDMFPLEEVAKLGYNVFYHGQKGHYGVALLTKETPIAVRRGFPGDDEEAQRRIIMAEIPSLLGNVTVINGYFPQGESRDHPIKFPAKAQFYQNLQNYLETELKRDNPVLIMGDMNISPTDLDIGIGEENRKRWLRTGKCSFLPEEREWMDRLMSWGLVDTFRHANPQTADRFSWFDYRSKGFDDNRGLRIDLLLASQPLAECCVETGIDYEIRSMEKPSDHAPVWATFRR
Protocol: 0.5 U EXO III was added into each reaction and incubated at 37° C. for 10 minutes to release fluorescence signal. Reaction mixtures were incubated at 50° C. for additional 30 min to ensure the complete release of 6-FAM conjugated unrepaired DNA substrates. EDTA was added into each reaction at a final concentration of 50 mM to terminate the reactions. Fluorescence readings were measured at excitation wavelength of 485±20 nm and emission wavelength of 528±20 nm on Synergy HTX Plate Reader. Data were exported for statistical analysis. The fluorescence reading of each well were adjusted by subtracting background reading signals from a control containing substrate […]. Normalized fluorescence data were averaged and plotted with corresponding statistical errors.

| Structure (SMILES) | effects on reducing BER capacity of prostate cancer (LNCaP) cell extracts [1] | inhibitory effects on Exo III activity (Exo III) |
| --- | --- | --- |
| NC1=NC(=O)N(C2CC(O)C(COP(=O)(O)O)O2)C(I)C1 (stereo not drawn) [NSC-124854] | not significant | do not exhibit any inhibitory effects |
| Cc1cc(S(=O)(=O)Nc2n[nH]c(Nc3ccc(Cl)cc3)n2)c(S)cc1Cl [NSC-666715] | not significant | do not exhibit any inhibitory effects |
| Cc1cc(S(=O)(=O)Nc2n[nH]c(Nc3ccc4ccccc4c3)n2)c(S)cc1Cl [NSC-666719] | not significant | do not exhibit any inhibitory effects |
